The values that follow come from US20230404989A1, “GRK2 INHIBITION BY PAROXETINE AMELIORATES OSTEOARTHRITIS” (THE PENN STATE RESEARCH FOUNDATION, priority 2020, published 2023).

The subject of experiment [1] is DMM mice. As to the kind of experiment: DMM drug treatment study: OARSI scoring and histomorphometry of knee cartilage. It counts as in vivo, mouse. On the procedure: Drug treatment studies: In twelve-week old male wild type C57BL/6 mice that received DMM surgeries, vehicle (PBS), paroxetine (5 mg/kg/day), fluoxetine (5 mg/kg/day), gallein (10 mg/kg/day) or indomethacin (2.5 mg/kg/day) were administered daily by ip injection. Drug treatment was initiated 8 weeks following DMM to determine the role of GRK2 signaling in the progression of OA.
Twelve-week-old male mice were administered DMM surgery to the right knee and sham surgery to the left knee as described (S. S. Glasson, Osteoarthritis. Cartilage. 15, 1061-1069 (2007)). Briefly, mice were anesthetized via intraperitoneal injection of ketamine (60 mg/kg) and xylazine (4 mg/kg), and a 5-mm-long incision was made on the medial side of the knee. Under a dissecting microscope, an incision was made along the medial side of the patellar tendon, opening the joint space. Using a #11 scalpel, the medial meniscotibial ligament (MMTL) was transected, enabling the medial meniscus to move freely. A similar skin incision was made in sham knees, but the joint structure was not disturbed. For the sham group, both right and left knees had sham surgeries. After surgery, 4-0 silk sutures were used to close the incision using an interrupted pattern. Mice were provided analgesia via intraperitoneal injection of buprenorphine (0.5 mg/kg) every 12 hours for 72 hours, and sutures were removed after 7 days. Mice were sacrificed, at the indicated time points, by anesthesia followed with whole animal perfusion using 10% NBF, knees were harvested and fixed for 7 days in 10% NBF, decalcified for 7 days in 10% w/v EDTA, embedded in paraffin, and 10-μm sections were cut and mounted for Safranin-O/Fast Green or IF staining.
Semi-quantitative histopathologic grading was performed using a derivative of the Chambers' scoring system that has been established by the OARSI histopathology initiative as the standard method for grading of mouse cartilage degeneration. Based on this system, cartilage grading was carried out using Safranin-O/Fast Green-stained midsagittal sections. Three sections from representative levels (50 μm apart) of the medial compartment of the joint were selected for each sample and, which were evaluated in a randomized, blinded manner by 3 laboratory members. The 3 scores were averaged to calculate the section score, and the sample score was then calculated by averaging the scores obtained from the three levels. Grading was performed using the following scale: 0=normal cartilage, 0.5=loss of proteoglycan stain without cartilage damage, 1=mild superficial fibrillation, 2=fibrillation and/or clefting extending below the superficial zone, 3=mild (<25%) loss of cartilage, 4=moderate (25-50%) loss of cartilage, 5=severe (50-75%) loss of uncalcified cartilage, and 6=eburnation with >75% loss of cartilage. Grading was performed by three blinded observers (F.K., M.J.Z., and E.R.S.). Observer agreement was evaluated in pairs via calculation of a weighted kappa coefficient, using Fleiss-Cohen weights, as we have described. The F.K. versus M.J.Z. coefficient was 0.92, the F.K. versus E.R.S. coefficient was 0.94, and the M.J.Z. versus E.R.S coefficient was 0.89, all indicative of strong agreement between the observers.
Using Safranin-O/Fast Green-stained sections, the OsteoMetrics system was used to quantify the above parameters on three sections from representative levels (50 μm apart) of the medial compartment of the joint for each sample. Live images of the center of the knee joint were collected through an Olympus microscope (10× objective) outfitted with a camera, a stylus was used to trace the regions of interest (ROIs). A blinded observer quantified uncalcified articular cartilage area, total chondrocyte number and matrix-producing chondrocyte number using the built-in area calculation algorithms and quantification functions of the OsteoMeasure® system. […]

In experiment [2] the test system is Gas activity (cAMP content in cartilage). Kind of experiment: cAMP assay in tibial articular cartilage of drug-treated DMM mice. It is filed as in vivo, mouse. Conditions: daily ip week 8 to 12. On the procedure:
Drug treatment studies: In twelve-week old male wild type C57BL/6 mice that received DMM surgeries, vehicle (PBS), paroxetine (5 mg/kg/day), fluoxetine (5 mg/kg/day), gallein (10 mg/kg/day) or indomethacin (2.5 mg/kg/day) were administered daily by ip injection. Drug treatment was initiated 8 weeks following DMM to determine the role of GRK2 signaling in the progression of OA. Short term drug treatment study: To evaluate the acute effect of drug treatments, GRK2^f/f mice received sham or DMM surgery followed by treatment with vehicle, paroxetine, gallein, fluoxetine, or indomethacin with the doses indicated above for 1 week beginning at 8 weeks post DMM. All mice were sacrificed 9 weeks post DMM, 21 weeks of age, for analysis of OA progression. Gas activity was measured by quantifying cAMP content in cartilage pooled from 3 mice. Tibial cartilage was dissected out and snap frozen in liquid Nitrogen. As positive control, tibial cartilage obtained from normal mice was treated with 0.5 mM 3-isobutyl-1-methylxanthine (IBMX) for 30 minutes, followed by 0.1 mM Forskolin for 15 minutes, then snap frozen in liquid Nitrogen. For human cartilage cAMP content, 70 mg frozen cartilage were used. Frozen cartilage was pulverized using 500 μL lysis buffer as we have previously described (H. K. Le Bleu, Anal Biochem, 518, 134-138 (2017)). cAMP content was quantified using the Cyclic AMP XP Assay kit (Cell Signaling, #4339) and following manufacturer's protocol, with 0.5 mM IBMX added to the lysis buffer to prevent phosphodiesterase mediated cAMP degradation during the extraction process. cAMP levels in different groups were normalized to that of sham mice or the vehicle treated human cartilage.

For experiment [3], the system named is DMM mice. As to the kind of experiment: Anterior femoral synovial membrane thickness in DMM mice. It is filed as in vivo, mouse. The conditions noted are these: daily ip week 8 to 12, versus vehicle. On the procedure: Drug treatment studies: In twelve-week old male wild type C57BL/6 mice that received DMM surgeries, vehicle (PBS), paroxetine (5 mg/kg/day), fluoxetine (5 mg/kg/day), gallein (10 mg/kg/day) or indomethacin (2.5 mg/kg/day) were administered daily by ip injection. Drug treatment was initiated 8 weeks following DMM to determine the role of GRK2 signaling in the progression of OA. Using Safranin-O/Fast Green-stained sections, the OsteoMetrics system was used to quantify the above parameters on three sections from representative levels (50 μm apart) of the medial compartment of the joint for each sample. Live images of the center of the knee joint were collected through an Olympus microscope (10× objective) outfitted with a camera, a stylus was used to trace the regions of interest (ROIs). A blinded observer quantified uncalcified articular cartilage area, total chondrocyte number and matrix-producing chondrocyte number using the built-in area calculation algorithms and quantification functions of the OsteoMeasure® system. […] The calcified cartilage was determined with a line drawn along the tide mark, which is the naturally occurring line separating the calcified and uncalcified regions of the articular cartilage. A second line was drawn at the chondro-osseous junction where the calcified cartilage meets the subchondral bone. The uncalcified cartilage area was determined by subtracting the calcified cartilage area from the total area of cartilage. Total chondrocyte number and matrix-producing chondrocyte number were counted within the uncalcified cartilage region using count functions within the histomorphometry system. Matrix-producing chondrocytes were counted based on the region of Safranin-O staining within the extracellular matrix surrounding the articular chondrocyte, indicating anabolic signaling to maintain matrix homeostasis. Similarly, the anterior femoral synovial thickness was measured using OsteoMeasure® software. Synovial membrane thickness extending from anterior horn of the medial meniscus to the femur was determined by drawing a line from the inner insertion point on the femur towards the attachment on the meniscus. A second line was drawn from the outer insertion of the femur towards the attachment to the meniscus. The synovial thickness was calculated by dividing total synovial area by synovial perimeter.

For another experiment, the target named is T1, GRK2 (Homo sapiens, UniProt P25098).
T1 sequence (P25098 1-689): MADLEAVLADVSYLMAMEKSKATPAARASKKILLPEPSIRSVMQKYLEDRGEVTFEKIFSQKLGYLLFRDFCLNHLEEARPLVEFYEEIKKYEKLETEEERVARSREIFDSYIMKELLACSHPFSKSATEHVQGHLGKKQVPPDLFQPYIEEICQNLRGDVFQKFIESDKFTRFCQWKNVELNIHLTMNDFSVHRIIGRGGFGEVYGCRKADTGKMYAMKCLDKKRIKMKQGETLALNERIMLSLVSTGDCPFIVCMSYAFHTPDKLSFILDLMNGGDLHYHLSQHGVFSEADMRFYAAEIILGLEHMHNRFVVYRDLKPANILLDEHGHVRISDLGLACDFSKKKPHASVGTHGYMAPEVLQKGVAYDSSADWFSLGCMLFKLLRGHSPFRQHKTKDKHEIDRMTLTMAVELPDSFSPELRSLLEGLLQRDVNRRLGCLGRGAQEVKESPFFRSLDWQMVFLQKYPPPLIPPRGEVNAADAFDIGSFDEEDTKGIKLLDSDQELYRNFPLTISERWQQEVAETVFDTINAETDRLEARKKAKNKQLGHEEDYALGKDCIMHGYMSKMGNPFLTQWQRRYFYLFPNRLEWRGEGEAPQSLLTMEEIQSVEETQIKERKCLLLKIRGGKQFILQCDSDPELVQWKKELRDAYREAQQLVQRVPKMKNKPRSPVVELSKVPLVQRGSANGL
Conditions: from cited literature; cited from earlier work.

Experiment [4] has as its system DMM mice. Kind of experiment: DMM mice treated with PTH, paroxetine or their combination: histology and histomorphometry (Example 1). It is filed as in vivo, mouse. The conditions noted are these: treatment week 8 to 12, PTH sc 40 μg/kg/day, paroxetine ip 5 mg/kg/day. On the procedure: Methods: Destabilization of the medial meniscus (DMM) surgery was used to simulate clinical post-traumatic OA. First, we determined the role of GRK2 inhibition in PTH1R Gas-cAMP signaling: 12 week old male mice underwent sham or DMM surgery and were treated with either vehicle or the GRK2 inhibitor “paroxetine” (ip, 5 mg/kg/day), treatment was initiated at the time of surgery and continued daily until 8 weeks. Knees were harvested and articular cartilage was obtained for ex vivo analysis of Gas activity. In ex vivo culture, cartilage explants were treated with PTH as an agonist to stimulate PTH1R-Ga-cAMP signaling. Thirty minutes following PTH stimulation, cartilage tissue was homogenized and cAMP levels were measured. Then, we determined the role of GRK2 inhibition in recovering or even potentiating PTH1R signaling in OA cartilage: 12 week old male mice underwent sham or DMM surgery, and received treatment with vehicle, PTH (sc, 40 μg/kg/day) alone, the GRK2 inhibitor “paroxetine3” (ip, 5 mg/kg/day) alone, or their combination. Treatment was initiated at week 8 following DMM surgery, where OA is in progress, and continued until week 12 where mice were sacrificed. Knees were harvested, paraffin embedded, sectioned and stained with safranin-o and fast green for histological evaluation, OARSI scoring, and histomorphometric analysis. Results are expressed as mean values+s.e.m. with an N=5-8 mice per experimental group. Statistical analyses were performed using one ANVOA with P<0.05 representing statistical significance.

Experiment [5] concerns DMM mice. As to the kind of experiment: Paroxetine combined with PTH in DMM mice: Micro-CT of subchondral bone. It counts as in vivo, mouse. Conditions: daily from 8 weeks, harvest 12 weeks after surgery.
Where [6] appears, read: daily ip week 8 to 12, versus vehicle.

For the compound `CNCCC(Oc1ccc(C(F)(F)F)cc1)c1ccccc1` (stereo not shown) [fluoxetine], in the experiment with DMM mice [1] (daily ip week 8 to 12), the “cartilage degeneration (Safranin-O and Fast Green histology)” value is on record as “progressive cartilage degeneration”; the “chondro-protective and matrix-regenerative effects (overall)” value is “lacks chondro-protective and matrix-regenerative effects”; the “total number of chondrocytes” value is “only mild preservation”; the uncalcified cartilage area result is reported as “no preservation”. Further, in the experiment on DMM mice [1] (setting [6]), the OARSI score entry was “high” and the “number of matrix producing chondrocytes” value is listed as “low”. Also, the “cAMP levels in the articular cartilage” value in experiment [2] was “not different from vehicle treated mice”. The synovial membrane thickness entry with DMM mice [3] is “attenuated”. Moreover, the GRK2 inhibitory effect result at GRK2 is on record as “lacks any GRK2-inhibitory effects”.

Take `COc1ccc2c(c1)c(CC(=O)O)c(C)n2C(=O)c1ccc(Cl)cc1` [indomethacin]: in the experiment with DMM mice [1] (daily ip week 8 to 12), the “cartilage degeneration (Safranin-O and Fast Green histology)” value is on record as “progressive cartilage degeneration”; the “chondro-protective and matrix-regenerative effects (overall)” value is listed as “no chondro-protective or matrix-regenerative effects”. Further, in the experiment on DMM mice [3], the synovial membrane thickness entry was “significantly reduced”.

For parathyroid hormone [PTH], in the experiment on DMM mice [4], the chondrocyte number result is “increased”, the “number of matrix-producing (anabolic) chondrocytes” value is on record as “particular increase” and the uncalcified cartilage area result is given as “increased”. For the same compound, the “effect on the subchondral bone of OA mice (plate thickness, BMD, BV/TV, Tb.Th, osteophytes)” value in the experiment on DMM mice [5] is listed as “deleterious effects”.
